Earlier results in US10201577B2, “Compositions and methods for enhancing working and long-term memory support using new combination of ginkgo biloba and panax ginseng and associated components” (KEYVIEW LABS, INC., priority 2017, dated 2019).

How the values were obtained:
[1] = in vivo, po
acetylcholine release = conditions: isolated Rb1
[2] = test system: long term potentiation (LTP); conditions: in vivo
[3] = molecular target: T1, choline acetyltransferase (Homo sapiens, UniProt P28329); conditions: isolated Rb1
T1 sequence (P28329 1-748): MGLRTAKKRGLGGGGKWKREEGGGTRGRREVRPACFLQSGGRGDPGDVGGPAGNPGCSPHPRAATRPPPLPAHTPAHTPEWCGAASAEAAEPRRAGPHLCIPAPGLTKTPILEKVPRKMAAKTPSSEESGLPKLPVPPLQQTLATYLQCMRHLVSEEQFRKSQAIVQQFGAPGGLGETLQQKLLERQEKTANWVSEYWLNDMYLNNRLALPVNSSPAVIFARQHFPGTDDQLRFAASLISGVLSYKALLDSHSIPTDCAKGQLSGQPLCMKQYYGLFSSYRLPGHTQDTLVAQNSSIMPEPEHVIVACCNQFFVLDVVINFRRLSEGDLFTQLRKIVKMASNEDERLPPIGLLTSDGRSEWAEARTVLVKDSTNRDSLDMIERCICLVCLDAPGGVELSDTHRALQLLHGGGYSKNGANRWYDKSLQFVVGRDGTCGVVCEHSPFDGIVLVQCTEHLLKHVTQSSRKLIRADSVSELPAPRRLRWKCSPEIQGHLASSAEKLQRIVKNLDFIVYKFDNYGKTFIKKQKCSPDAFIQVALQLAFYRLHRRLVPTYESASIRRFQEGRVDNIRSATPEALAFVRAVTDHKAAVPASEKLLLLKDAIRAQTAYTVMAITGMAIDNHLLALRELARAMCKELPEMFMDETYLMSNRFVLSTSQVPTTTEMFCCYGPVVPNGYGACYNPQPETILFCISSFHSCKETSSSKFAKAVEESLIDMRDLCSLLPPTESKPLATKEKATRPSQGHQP

SMILES	elimination half-life [1] [h]	time of peak plasma level [1]	acetylcholine release (acetylcholine release)	long term potentiation (LTP) [2]	choline acetyltransferase activity [3]
CC1C(=O)OC2C(O)C34C5CC(C(C)(C)C)C36C(OC(=O)C6O)OC4(C(=O)O5)C12O (centres unmarked) [Ginkgolide B]	4.31 ± 0.49	around 2.25±0.45 hours			
CC(C)=CCC[C@](C)(O[C@@H]1O[C@H](CO[C@@H]2O[C@H](CO)[C@@H](O)[C@H](O)[C@H]2O)[C@@H](O)[C@H](O)[C@H]1O)[C@H]1CC[C@]2(C)[C@@H]1[C@H](O)C[C@@H]1[C@@]3(C)CC[C@H](O[C@@H]4O[C@H](CO)[C@@H](O)[C@H](O)[C@H]4O[C@@H]4O[C@H](CO)[C@@H](O)[C@H](O)[C@H]4O)C(C)(C)[C@@H]3CC[C@]12C [Rb1]			stimulates	capable of in vivo modulation	stimulates
